Test results published in patent publication US20050107611A1, “Pyrazolyl-substituted triazoloquinoxalines” (priority 2001, published 2005).
pKi: −log10 of the molar value. Blank lines part the entries; values can stand above or below the compound they belong to.

Experiments:
A2A adenosine receptor = A2A adenosine receptor (Rattus norvegicus, UniProt P30543); conditions: Table 1, literature values; cited from earlier work
A1 adenosine receptor = molecular target: T1, A1 adenosine receptor (Rattus norvegicus, UniProt P25099); conditions: Table 1, literature values, cited from earlier work
T1 sequence (P25099 1-326): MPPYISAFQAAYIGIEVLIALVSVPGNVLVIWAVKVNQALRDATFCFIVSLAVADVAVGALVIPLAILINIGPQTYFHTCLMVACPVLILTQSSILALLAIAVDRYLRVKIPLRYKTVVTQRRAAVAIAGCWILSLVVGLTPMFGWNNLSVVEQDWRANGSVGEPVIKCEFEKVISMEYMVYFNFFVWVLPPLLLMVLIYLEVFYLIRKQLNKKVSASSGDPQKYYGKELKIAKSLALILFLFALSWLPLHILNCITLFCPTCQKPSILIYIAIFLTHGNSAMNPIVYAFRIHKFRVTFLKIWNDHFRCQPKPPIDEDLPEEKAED

[1] = molecular target: T2, human A1-adenosine receptor (Homo sapiens, UniProt P30542); assay: Radioligand binding with [3H]CCPA on recombinant human A1-adenosine receptors expressed by CHO cells; conditions: read-out: A1 K1, Human
T2 construct: expressed in transfected cells; host or cells: CHO cells
T2 sequence (P30542 1-326): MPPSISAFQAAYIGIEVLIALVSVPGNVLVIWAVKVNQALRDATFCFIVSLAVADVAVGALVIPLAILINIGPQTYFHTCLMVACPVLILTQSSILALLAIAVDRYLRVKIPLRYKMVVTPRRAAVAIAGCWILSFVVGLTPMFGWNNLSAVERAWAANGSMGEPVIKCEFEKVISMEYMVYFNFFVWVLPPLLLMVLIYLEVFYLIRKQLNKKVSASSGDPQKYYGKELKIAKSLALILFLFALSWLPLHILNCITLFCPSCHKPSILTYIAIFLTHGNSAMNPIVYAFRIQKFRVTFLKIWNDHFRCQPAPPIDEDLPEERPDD
Text: The following selective radioligands are used in the biological tests: • [^3H]CCPA (for A1 ARs) [Klotz et al., Naunyn-Schmiedeberg's Arch. Pharmacol., 340, 679 (1989)] • [^3]MSX-2 (for A2A ARs) [Muiller et al., Eur. J. Pharm. Sci., 10, 259 (2000)] • [^3H]ZM241385 (for A2B ARs_[X.-D. Ji, K. A. Jacobson, Drug Des. Discov., 16, 217 (1999)] • [^3H]PSB-11 (new antagonistic radioligand for human A3 ARs) [M. Dieckmann, M. Thorand, V. Ozola, C. E. Muiller, in Vorbereitung [Preparation] (2001)]. • [^125I]AB-MECA (for rat-A3 ARs) [Olah et al., Mol. Pharmacol., 45, 978 (1994)]. Description of the Assays That are Used for Testing Substances Production of Tissue Preparations Made from Rat Brains
As cell cultures, for example, CHO cells, which express the human A1-adenosine receptor, are used.
The nutrient medium, trypsine and PBS (phosphate-buffered common salt solution) are heated in a water bath to 37° C. The medium is suctioned off from the flask that is approximately 80% to 90% confluently covered with CHO cells. […]
The mixture is incubated for 90 minutes in an oscillating water bath at 23° C. […] The filter plates are conveyed in scintillation vials, doused with 2.5 ml of Ultima Gold Scintillation cocktail and incubated for at least 6 hours before they are measured in a scintillation counter.
The mean value is calculated from three independent experiments. […]

Compound: Clc1cc(-c2nc3ccccc3n3cnnc23)[nH]n1 [Y = C—H, R5 = H, R6 = Cl]
A2A % Inhibition @ 25 μmol (A2A adenosine receptor): (21%)
A1 % Inhibition @ 10 μmol (A1 adenosine receptor; 10 μmol): (35%)
pKi (A1 adenosine receptor; read-out: A1 K1): < 5.00

melting point: 205 to 207 °C
Compound: Cn1nc(-c2nc3ccccc3n3c(Cc4cccs4)nnc23)cc1Cl [Y = C—CH2-(2-Thienyl), R5 = CH3, R6 = Cl, 4-(5-Chloro-1H-1-methyl-pyrazol-3-yl)-1-(2-thienylmethyl)-[1,2,4]triazolo[4,3-a]-quinoxaline]

Compound: 4-(chloropyrazolyl)-1-(3-phenylpropyl)-[1,2,4-]triazolo[4,3-a]quinoxaline [Y = C—CH2—CH2—CH2-Ph, R5 = H, R6 = Cl]
pKi [1]: 8.70
